Legend:
[1] = system: 92US657 (clade B, R5); assay: Primary HIV-1 isolate infection of PBMC, p24 ELISA; type: cell-based; conditions: p24 production, 7 days post infection
Description: (§1) The inhibitory activity of FS-01 against primary HIV-1 isolates was determined as previously described in (Jiang, S., et al. ANTIMICROB. AGENTS CHEMOTHER. 2004; 48: 4349-4359. The peripheral blood mononuclear cells (PBMC) were isolated from the blood of healthy donors using a standard density gradient (Histopaque-1077, Sigma) centrifugation. The cells were plated in 75-cm plastic flasks and incubated at 37° C. for 2 h. The nonadherent cells were collected and resuspended at 5×10^5/mL in RPMI 1640 medium containing 10% FBS, 5 μg of phytohemagglutinin (PHA)/mL, and 100 U of interleukin-2/mL, followed by incubation at 37° C. for 3 days. The PHA-stimulated cells were infected with the corresponding primary HIV-1 isolates at a multiplicity of infection (MOI) of 0.01 in the absence or presence of FS-01 at graded concentrations. Culture media were changed every 3 days. The supernatants were collected 7 days post infection and tested for p24 antigen by ELISA. The percent inhibition of p24 production and IC50/IC90 values were calculated.

[2] = system: 94UG103 (clade A, X4R5); assay: Primary HIV-1 isolate infection of PBMC, p24 ELISA; type: cell-based; conditions: p24 production, 7 days post infection
Description: as §1

[3] = system: 92TH009 (clade E, R5); assay: Primary HIV-1 isolate infection of PBMC, p24 ELISA; type: cell-based; conditions: p24 production, 7 days post infection
Description: as §1

[4] = system: 93IN101 (clade C, R5); assay: Primary HIV-1 isolate infection of PBMC, p24 ELISA; type: cell-based; conditions: p24 production, 7 days post infection
Description: as §1

[5] = system: 93BR020 (clade F, X4R5); assay: Primary HIV-1 isolate infection of PBMC, p24 ELISA; type: cell-based; conditions: p24 production, 7 days post infection
Description: as §1

[6] = system: 92UG001 (clade D, X4R5); assay: Primary HIV-1 isolate infection of PBMC, p24 ELISA; type: cell-based; conditions: p24 production, 7 days post infection
Description: as §1

[7] = system: HIV-1IIIB-mediated cell-cell fusion (H9/HIV-1IIIB-infected cells with MT-2 cells); assay: Dye transfer assay of HIV-1 mediated cell-cell fusion; type: cell-based; conditions: 37° C. for 2 h; read-out: IC50, inhibition of cell-cell fusion
Description: A dye transfer assay was used for detection of HIV-1 mediated cell-cell fusion as previously described in (Jiang, S., et al. Antimicrob.Agents Chemother. 2004; 48: 4349-4359. In brief, H9/HIV-1IIIB-infected cells were labeled with a fluorescent reagent, Calcein-AM (Molecular Probes, Inc., Eugene, OR) and then incubated with MT-2 cells (ratio =1:5) in 96-well plates at 37° C. for 2 h in the presence or absence of peptides. The fused and unfused calcein-labeled HIV-1-infected cells were counted under an inverted fluorescence microscope (Zeiss, Germany) with an eyepiece micrometer disc. The inhibition percent of cell-cell fusion and the IC50 values were calculated as described. […] The inhibitory activity of FS-01 on HIV-1-mediated infection was conducted too.

[8] = system: POPC LUVs; assay: Isothermal titration calorimetry (ITC), peptide-lipid binding; conditions: LUVs injected into peptide solution
Description: So, the POPC LUV liposome system was employing to investigate the binding activity of FS-01 to lipid membranes. Large unilamellar vesicles (LUVs) of 1-palmitoyl-2-oleoyl-sn-glycero-3-phosphocholine (POPC) liposome were prepared as previously described (Liu, S., et al. J.BIOL.CHEM. 2007; 282: 9612-9620). Briefly, 20 mg of POPC stock solution was dried under a stream of nitrogen and stored in vacuum overnight to completely remove trace amounts of organic solvent. The dried lipid film was suspended by vortexing in 2 mL PBS buffer. The resultant multilamellar vesicle suspension was freeze-thawed for 5 cycles and then successively extruded through two stacked polycarbonate filters (0.1 μm) 13 times using an Avanti miniextruder.
Solutions were degassed under vacuum prior to use. LUVs of POPC were injected into the chamber containing a peptide solution or buffer only (as a control). The heats generated in control experiments by injecting lipid vesicles into buffer without a peptide were subtracted from the heats produced in the corresponding peptide-lipid binding experiments. Data acquisition and analyses were performed using MicroCal's Origin software (Version 7.0).

[9] = system: NL4-3 (N42S); type: cell-based, HIV-1; conditions: T20-sensitive (S) virus, MT-2 cells, p24, fourth day; read-out: IC50 (Mean ± SD)
Description: (§2) Two T20-sensitive and five T20-resistant strains with well defined genetic mutations conferring the resistance were used in this experiment (Rimsky, L. T., et al. J.VIROL. 1998; 72: 986-993). Briefly, 1×10^4 MT-2 cells were infected with HIV-1 isolates at 100 TCID50 (50% tissue culture infective dose) in 200 μl RPMI 1640 medium containing 10% FBS in the presence or absence of FS-01 at graded concentrations overnight. Then the culture supernatants were removed and fresh media without FS-01 were added. On the fourth day post-infection, 100 μl of culture supernatants were collected from each well, mixed with equal volumes of 5% Triton X-100 and assayed for p24 antigen by ELISA.

[10] = system: NL4-3 (parental); type: cell-based, HIV-1; conditions: T20-sensitive (S) virus, MT-2 cells, p24, fourth day; read-out: IC50 (Mean ± SD)
Description: as §2

[11] = system: NL4-3 (V38A/N42D); type: cell-based, HIV-1; conditions: T20-resistant (R) virus, MT-2 cells, p24, fourth day; read-out: IC50 (Mean ± SD)
Description: as §2

[12] = system: NL4-3 (V38A); type: cell-based, HIV-1; conditions: T20-resistant (R) virus, MT-2 cells, p24, fourth day; read-out: IC50 (Mean ± SD)
Description: as §2

[13] = system: NL4-3 (V38A/N42T); type: cell-based, HIV-1; conditions: T20-resistant (R) virus, MT-2 cells, p24, fourth day; read-out: IC50 (Mean ± SD)
Description: as §2

[14] = system: NL4-3 (V38E/N42S); type: cell-based, HIV-1; conditions: T20-resistant (R) virus, MT-2 cells, p24, fourth day; read-out: IC50 (Mean ± SD)
Description: as §2

[15] = system: NL4-3 (N42T/N43K); type: cell-based, HIV-1; conditions: T20-resistant (R) virus, MT-2 cells, p24, fourth day; read-out: IC50 (Mean ± SD)
Description: as §2

enfuvirtide
IC50 ([1]; read-out: IC50 (Mean ± SD)): 41.5 ± 8.76 nM | IC90 ([1]; read-out: IC90 (Mean ± SD)): 177 ± 15.9 nM | IC50 ([2]; read-out: IC50 (Mean ± SD)): 83.8 ± 12.1 nM | IC90 ([2]; read-out: IC90 (Mean ± SD)): 151 ± 8.8 nM | IC50 ([3]; read-out: IC50 (Mean ± SD)): 221 ± 58.3 nM | IC90 ([3]; read-out: IC90 (Mean ± SD)): 724 ± 56.6 nM | IC50 ([4]; read-out: IC50 (Mean ± SD)): 47.2 ± 4.73 nM | IC90 ([4]; read-out: IC90 (Mean ± SD)): 130 ± 16.8 nM | IC50 ([5]; read-out: IC50 (Mean ± SD)): 73.7 ± 8.57 nM | IC90 ([5]; read-out: IC90 (Mean ± SD)): 204 ± 28 nM | IC50 ([6]; read-out: IC50 (Mean ± SD)): 185 ± 23.3 nM | IC90 ([6]; read-out: IC90 (Mean ± SD)): 501 ± 70.8 nM | IC50 [7]: 21.4 nM | binding constant to POPC LUVs [8]: about 5×10^4 M^−1 | IC50 [9]: 26.9 ± 13 nM | IC50 [10]: 22 ± 1.19 nM | IC50 [11]: > 2000 nM | IC50 [12]: > 2000 nM | IC50 [13]: > 2000 nM | IC50 [14]: > 2000 nM | IC50 [15]: > 2000 nM
